Results as given in US10226508B2, “Treatment of chronic ulcers” (Promore Pharma AB, priority 2013, dated 2019).
Entries after “also recorded” stand apart in the source; their conditions may differ. Where two headings read alike, the source gives them in different places.

Tests used:
angiogenesis = conditions: synthetic LL-37, subcutaneous injection; Koczulla et al 2003; cited from earlier work
wound healing = conditions: topical treatment; mice treated with a corticosteroid; Ramos et al 2011; cited from earlier work
acute wounds = conditions: synthetic LL-37, repeated topical administration in acute wounds; cited from earlier work
[1] = tested on: HTH VLUs (hard-to-heal venous leg ulcers); assay: Double-blind, randomised, placebo-controlled Phase I/II safety and pilot-dose response study of LL-37 in HTH VLUs; type: in vivo, human; conditions: for Estimated healing rate constant (cm^2/day) Mean (95% C.I.): 25 μL/cm^2 topical every third day, 4 weeks, exponential decay model, placebo 0.007
Procedure: A double-blind, randomised, placebo-controlled, Phase I/II safety and pilot-dose response study was conducted on human subjects. The first subject was enrolled in August 2012 and the last subject completed in April 2013.
Study subjects comprised either male subjects of at least 18 years of age, or post-menopausal or clinically sterile women, with VLUs or combined venous-arterial ulcers with a predominant venous component.
Target wounds with an area greater than 30 cm^2 and less than 2 cm^2 were excluded initially. However, in order to increase the inclusion rate and decrease the total study time, criteria were amended after randomisation of 21 subjects, to exclude areas greater than 40 cm^2 and less than 1 cm^2. If an eligible subject had more than one wound satisfying the entry criteria, the investigator identified the wound with the most appropriate size, shape and localisation as target wound. Only one wound per subject was treated in the study.
During the 3-week run-in period, subjects received, every third day (±1) and not more than two times per week, six applications (in total) of a placebo preparation (see below) in combination with standard compression bandaging (as defined by the Swedish MPA), comprising elastic bandaging and appropriate dressing to control wound exudation.
If the ulcerative area decrease was greater than between 7% and 13% (depending on size) per week relative to the start of the run-in period, the ulcer was not defined as HTH for the purposes of this study. In such cases, subjects were excluded from the study and the outcome was recorded as screening failure.
After a run-in period, 34 eligible subjects underwent baseline assessments before randomisation to receive active treatment (one of three treatment strengths) or placebo.
Following the above run-in period, a 4-week treatment period was initiated, including 8 visits, an end-of-treatment visit 3 days (±1 day) after the last treatment, and a follow-up visit after an additional 4 weeks (±1 to 7 days).
Subjects were randomised into four treatment groups to receive LL-37 (one of three alternative strengths), or placebo.
Wound bed preparation prior to treatment included debridement of non-viable tissue, treatment of clinical infection and selection of the most appropriate dressing (see below). The wound was cleaned using tap water, gently dried with a gauze pad and, if necessary, curettage was applied prior to application of the trial product or placebo.
0.7 mL of a sterile concentrate of LL-37 in water at concentrations of 2.5, 8 or 16 mg of LL-37 per mL was provided in sealed glass vials (APL, Umeå, Sweden), which were stored prior to the trial at between 2 and 8° C. Immediately before application to the wound, this was diluted with […] of a viscous diluent solution comprising 13.1% (w/w) of polyvinyl alcohol in acetate buffered saline (APL AB) to give final concentrations of either 0.5, 1.6 or 3.2 mg/mL, respectively. Placebo comprised exactly the same solution, but without LL-37 present.
The diluted viscous liquid solution of active treatment or placebo was applied topically at an amount of 25 μL/cm^2 with a 1 mL graded syringe at the centre of the cleansed and dried ulcer, and distributed evenly over the entire ulcer area using the rounded head of the syringe plunger that had been used in mixing the study drug.
After a 5-minute wait (to prevent LL-37 or placebo from being absorbed by the dressing material), the above procedure was followed by application of a dressing and a compression bandage.
The above procedure was repeated every third day (±1) over a 4 week treatment period, not more than two times per week, representing a total of eight applications.
The study assessed the rate of wound healing, pain at wound site both at the time of dressing and over the previous 24 hours using Visual Analogue Scale (VAS). […]

[2] = tested on: acute wounds of diabetic mice; conditions: cited from earlier work

LL-37
effect on angiogenesis (angiogenesis): stimulates angiogenesis
effect on wound healing (wound healing): stimulated wound healing
effect on inflammatory cells (acute wounds): attracts inflammatory cells to the surrounding tissue
wound healing response (conclusion) ([1]; LL-37 0.5 mg/mL (13 μg per cm^2 of wound area) every third day): marked and significant improvement in wound healing
Estimated healing rate constant (cm^2/day) Mean (95% C.I.) ([1]; LL-37 0.5 mg/mL): 0.039 cm^2/day
broken stick analysis: reduction in wound area after randomisation versus run-in ([1]; LL-37 0.5 mg/mL, p<0.001, FIG. 1): statistically significant improved healing
wound healing response (conclusion) ([1]; LL-37 1.6 mg/mL (40 μg per cm^2 of wound area) every third day): marked and significant improvement in wound healing
Estimated healing rate constant (cm^2/day) Mean (95% C.I.) ([1]; LL-37 1.6 mg/mL): 0.019 cm^2/day
mean reduction in wound area ([1]; LL-37 1.6 mg/mL, from randomization to the end of the study): 5.29 cm^2
broken stick analysis: reduction in wound area after randomisation versus run-in ([1]; LL-37 1.6 mg/mL, p=0.011, FIG. 1): statistically significant improved healing
clinical benefit in chronic ulcers ([1]; LL-37 3.2 mg/mL, 80 μg/cm^2 every third day (26.7 μg/cm^2 for each day)): do not effectively treat chronic ulcers; also recorded: no clinical benefit
Estimated healing rate constant (cm^2/day) Mean (95% C.I.) ([1]; LL-37 3.2 mg/mL): 0.004 cm^2/day
Wound Area (cm^2), Mean ± S.D ([1]; Visit 1 (Screening), before treatment, LL-37 0.5 mg/mL group (N = 8)): 4.59 ± 2.024 cm^2
Wound Area (cm^2), Mean ± S.D ([1]; Visit 1 (Screening), before treatment, LL-37 1.6 mg/mL group (N = 9)): 7.84 ± 4.789 cm^2
Wound Area (cm^2), Mean ± S.D ([1]; Visit 1 (Screening), before treatment, LL-37 3.2 mg/mL group (N = 8)): 8.41 ± 6.450 cm^2
Wound Area (cm^2), Mean ± S.D ([1]; Visit 3 (placebo run-in), LL-37 0.5 mg/mL group (N = 8)): 4.39 ± 1.995 cm^2
Wound Area (cm^2), Mean ± S.D ([1]; Visit 3 (placebo run-in), LL-37 1.6 mg/mL group (N = 9)): 8.14 ± 4.997 cm^2
Wound Area (cm^2), Mean ± S.D ([1]; Visit 3 (placebo run-in), LL-37 3.2 mg/mL group (N = 8)): 7.83 ± 6.163 cm^2
Wound Area (cm^2), Mean ± S.D ([1]; Visit 6 (Randomisation), baseline, LL-37 0.5 mg/mL group (N = 8)): 5.11 ± 1.732 cm^2
Wound Area (cm^2), Mean ± S.D ([1]; Visit 6 (Randomisation), baseline, LL-37 1.6 mg/mL group (N = 9)): 7.69 ± 4.072 cm^2
Wound Area (cm^2), Mean ± S.D ([1]; Visit 6 (Randomisation), baseline, LL-37 3.2 mg/mL group (N = 8)): 8.50 ± 6.919 cm^2
Wound Area (cm^2), Mean ± S.D ([1]; Visit 8, LL-37 0.5 mg/mL (N = 8)): 3.89 ± 1.329 cm^2
Wound Area (cm^2), Mean ± S.D ([1]; Visit 8, LL-37 1.6 mg/mL (N = 9)): 5.83 ± 2.156 cm^2
Wound Area (cm^2), Mean ± S.D ([1]; Visit 8, LL-37 3.2 mg/mL (N = 8)): 7.95 ± 6.270 cm^2
Wound Area (cm^2), Mean ± S.D ([1]; Visit 10, LL-37 0.5 mg/mL (N = 8)): 3.18 ± 1.549 cm^2
Wound Area (cm^2), Mean ± S.D ([1]; Visit 10, LL-37 1.6 mg/mL (N = 9)): 5.34 ± 1.943 cm^2
Wound Area (cm^2), Mean ± S.D ([1]; Visit 10, LL-37 3.2 mg/mL (N = 8)): 7.03 ± 5.063 cm^2
Wound Area (cm^2), Mean ± S.D ([1]; Visit 12, LL-37 0.5 mg/mL (N = 8)): 2.26 ± 1.061 cm^2
Wound Area (cm^2), Mean ± S.D ([1]; Visit 12, LL-37 1.6 mg/mL (N = 9)): 4.59 ± 2.266 cm^2
Wound Area (cm^2), Mean ± S.D ([1]; Visit 12, LL-37 3.2 mg/mL (N = 8)): 5.93 ± 5.317 cm^2
Wound Area (cm^2), Mean ± S.D ([1]; Visit 14, LL-37 0.5 mg/mL (N = 8)): 1.93 ± 1.262 cm^2
Wound Area (cm^2), Mean ± S.D ([1]; Visit 14, LL-37 1.6 mg/mL (N = 9)): 3.86 ± 3.029 cm^2
Wound Area (cm^2), Mean ± S.D ([1]; Visit 14, LL-37 3.2 mg/mL (N = 8)): 5.89 ± 4.784 cm^2
Wound Area (cm^2), Mean ± S.D ([1]; Visit 15 (End of Treatment), LL-37 0.5 mg/mL (N = 8)): 1.98 ± 1.276 cm^2
Wound Area (cm^2), Mean ± S.D ([1]; Visit 15 (End of Treatment), LL-37 1.6 mg/mL (N = 9)): 3.34 ± 3.166 cm^2
Wound Area (cm^2), Mean ± S.D ([1]; Visit 15 (End of Treatment), LL-37 3.2 mg/mL (N = 8)): 5.85 ± 4.648 cm^2
Wound Area (cm^2), Mean ± S.D ([1]; Visit 16 (End of Study, follow-up approx. 4 weeks after last treatment), LL-37 0.5 mg/mL (N = 8)): 1.33 ± 1.209 cm^2
Wound Area (cm^2), Mean ± S.D ([1]; Visit 16 (End of Study, follow-up approx. 4 weeks after last treatment), LL-37 1.6 mg/mL (N = 9)): 2.40 ± 3.269 cm^2
Wound Area (cm^2), Mean ± S.D ([1]; Visit 16 (End of Study, follow-up approx. 4 weeks after last treatment), LL-37 3.2 mg/mL (N = 8)): 6.19 ± 4.770 cm^2
difference of estimated healing rate versus the placebo group ([1]; highest dose, LL-37 3.2 mg/mL): no statistically significant difference
broken stick analysis: post-randomisation rate versus run-in ([1]; highest dose, LL-37 3.2 mg/mL, FIG. 1): No significant difference
difference of healing rate constant (exponential decay model) versus the placebo group ([1]; intermediate dose, LL-37 1.6 mg/mL, p=0.088): 3 fold
difference of healing rate constant (exponential decay model) versus the placebo group ([1]; lowest dose, LL-37 0.5 mg/mL, p=0.003): 6 fold
effect in acute wounds of diabetic mice ([2]; one study, Carretero et al 2008): beneficial effect
effect in acute wounds of diabetic mice ([2]; other studies, Steinstraesser et al 2012): failed to show an effect
